How the values were obtained:
[1] = Compound cytotoxicity, XTT-based colorimetric assay; assay type: cell-based; settings: human; uninfected MT2 cells, day 4, XTT; read-out: CC50
Outline: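 Cells seeded as for the antiviral assay but left uninfected (MT2). Compound exposure continued to day 4. XTT reagent added and colour read. CC50 calculated.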

[2] = test system: recombinant NL4-3 virus (nef section replaced with Renilla luciferase gene) in MT-2 cells; experiment: HIV cell culture assay (antiviral activity, luciferase readout); assay type: cell-based; settings: Renilla, NL43, MT-2 cells infected for 4-5 days with recombinant NL4-3 Renilla luciferase virus
Outline: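 EC50 was derived by median-effect fitting of Renilla luciferase signal from MT-2 cells. These cells were infected for 4–5 days with NL4-3 reporter virus (nef partly replaced by luciferase; made in 293T cells) in the presence of serially diluted compound. Activity was quantified with a live-cell luciferase substrate.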

**Q.** With `CCc1cc(C2CCC(F)(F)CC2)nc2nc([C@H](Cc3cc(F)cc(F)c3)NC(=O)Cn3nc(C4CC4)c4c3C(F)(F)[C@@H]3C[C@H]43)n(-c3ccc(Cl)c4c(NS(C)(=O)=O)nn(CCCOC)c34)c(=O)c12` (atropisomer, axis not shown; (P)) [Example 639, N-[(1S)-1-[(3P)-3-[4-chloro-3-methanesulfonamido-1-(3-methoxypropyl)-1H-indazol-7-yl]-7-(4,4-difluorocyclohexyl)-5-ethyl-4-oxo-3H,4H-pyrido[2,3-d]pyrimidin-2-yl]-2-(3,5-difluorophenyl)ethyl]-2-[(2S,4R)-9-cyclopropyl-5,5-difluoro-7,8-diazatricyclo[4.3.0.0^2,^4]nona-1(6),8-dien-7-yl]acetamide] as the molecule, how does the CC50 at 4 days [1] read?
**A.** > 50000 pM

**Q.** And the EC50 [2]?
**A.** 25 pM

**Q.** Which CC50 at 4 days [1] does the source give for `CS(=O)(=O)Nc1nn(CCN(CCC(F)(F)F)CCC(F)(F)F)c2c(-n3c([C@H](Cc4cc(F)cc(F)c4)NC(=O)Cn4nc(C(F)F)c5c4C(F)(F)[C@@H]4C[C@H]54)nc4nc(C5CCC(F)(F)CC5)ccc4c3=O)ccc(Cl)c12` (atropisomer, axis not shown; (P)) [Example 671, N-[(1S)-1-[(3P)-3-(1-{2-[bis(3,3,3-trifluoropropyl)amino]ethyl}-4-chloro-3-methanesulfonamido-1H-indazol-7-yl)-7-(4,4-difluorocyclohexyl)-4-oxo-3H,4H-pyrido[2,3-d]pyrimidin-2-yl]-2-(3,5-difluorophenyl)ethyl]-2-[(2S,4R)-9-(difluoromethyl)-5,5-difluoro-7,8-diazatricyclo[4.3.0.0^2,^4]nona-1(6),8-dien-7-yl]acetamide] here?
**A.** > 20000 pM

**Q.** What about the EC50 [2] of the same molecule?
**A.** 27 pM

**Q.** What does the source list for `CS(=O)(=O)Nc1nn(CCN2CCC(F)(F)CC2)c2c(-n3c([C@H](Cc4cc(F)cc(F)c4)NC(=O)Cn4nc(C(F)F)c5c4C(F)(F)[C@@H]4C[C@H]54)nc4nc(C5CCC(F)(F)CC5)cc(CO)c4c3=O)ccc(Cl)c12` (atropisomer, axis not shown; (P)) [Example 675, N-[(1S)-1-[(3P)-3-{4-chloro-1-[2-(4,4-difluoropiperidin-1-yl)ethyl]-3-methanesulfonamido-1H-indazol-7-yl}-7-(4,4-difluorocyclohexyl)-5-(hydroxymethyl)-4-oxo-3H,4H-pyrido[2,3-d]pyrimidin-2-yl]-2-(3,5-difluorophenyl)ethyl]-2-[(2S,4R)-9-(difluoromethyl)-5,5-difluoro-7,8-diazatricyclo[4.3.0.0^2,4]nona-1(6),8-dien-7-yl]acetamide]?
**A.** CC50 at 4 days [1]: > 20000 pM; EC50 [2]: 31 pM

**Q.** With `COCc1cc(C2CCC(F)(F)CC2)nc2nc([C@H](Cc3cc(F)cc(F)c3)NC(=O)Cn3nc(C(F)F)c4c3C(F)(F)[C@@H]3C[C@H]43)n(-c3ccc(Cl)c4c(NS(C)(=O)=O)nn(CCN5CCC(F)(F)CC5)c34)c(=O)c12` (atropisomer, axis not shown; (P)) [Example 676, N-[(1S)-1-[(3P)-3-{4-chloro-1-[2-(4,4-difluoropiperidin-1-yl)ethyl]-3-methanesulfonamido-1H-indazol-7-yl}-7-(4,4-difluorocyclohexyl)-5-(methoxymethyl)-4-oxo-3H,4H-pyrido[2,3-d]pyrimidin-2-yl]-2-(3,5-difluorophenyl)ethyl]-2-[(2S,4R)-9-(difluoromethyl)-5,5-difluoro-7,8-diazatricyclo[4.3.0.0^2,^4]nona-1(6),8-dien-7-yl]acetamide] as the molecule, how does the CC50 at 4 days [1] read?
**A.** > 20000 pM

**Q.** What about the EC50 [2] of the same molecule?
**A.** 11 pM

**Q.** Which CC50 at 4 days [1] does the source give for `Cc1cc(C2CCC(F)(F)CC2)nc2nc([C@H](Cc3cc(F)cc(F)c3)NC(=O)Cn3nc(C(F)F)c4c3C(F)(F)[C@@H]3C[C@H]43)n(-c3ccc(Cl)c4c(NS(C)(=O)=O)nn(C[C@@H](C)N5C[C@H](F)C[C@H](F)C5)c34)c(=O)c12` (atropisomer, axis not shown; (P)) [Example 683, N-[(1S)-1-[(3P)-3-{4-chloro-1-[(2R)-2-[(3R,5S)-3,5-difluoropiperidin-1-yl]propyl]-3-methanesulfonamido-1H-indazol-7-yl}-7-(4,4-difluorocyclohexyl)-5-methyl-4-oxo-3H,4H-pyrido[2,3-d]pyrimidin-2-yl]-2-(3,5-difluorophenyl)ethyl]-2-[(2S,4R)-9-(difluoromethyl)-5,5-difluoro-7,8-diazatricyclo[4.3.0.0^2,^4]nona-1(6),8-dien-7-yl]acetamide] here?
**A.** > 20000 pM

**Q.** And the EC50 [2]?
**A.** 6 pM

**Q.** With `C[C@H](Cn1nc(NS(C)(=O)=O)c2c(Cl)ccc(-n3c([C@H](Cc4cc(F)cc(F)c4)NC(=O)Cn4nc(C(F)F)c5c4C(F)(F)[C@@H]4C[C@H]54)nc4nc(C5CCC(F)(F)CC5)cc(C5CC5)c4c3=O)c21)N1C[C@H](F)C[C@H](F)C1` (atropisomer, axis not shown; (P)) [Example 684, N-[(1S)-1-[(3P)-3-{4-chloro-1-[(2R)-2-[(3R,5S)-3,5-difluoropiperidin-1-yl]propyl]-3-methanesulfonamido-1H-indazol-7-yl}-5-cyclopropyl-7-(4,4-difluorocyclohexyl)-4-oxo-3H,4H-pyrido[2,3-d]pyrimidin-2-yl]-2-(3,5-difluorophenyl)ethyl]-2-[(2S,4R)-9-(difluoromethyl)-5,5-difluoro-7,8-diazatricyclo[4.3.0.0^2,^4]nona-1(6),8-dien-7-yl]acetamide] as the molecule, how does the CC50 at 4 days [1] read?
**A.** > 20000 pM

**Q.** What about the EC50 [2] of the same molecule?
**A.** 14 pM

**Q.** With `Cc1cc(C2(F)CCC(F)(F)CC2)nc2nc([C@H](Cc3cc(F)cc(F)c3)NC(=O)Cn3nc(C(F)F)c4c3C(F)(F)[C@@H]3C[C@H]43)n(-c3ccc(Cl)c4c(NS(C)(=O)=O)nn(C[C@@H](C)N5C[C@H](F)C[C@H](F)C5)c34)c(=O)c12` (atropisomer, axis not shown; (P)) [Example 697, N-[(1S)-1-[(3P)-3-{4-chloro-1-[(2R)-2-[(3R,5S)-3,5-difluoropiperidin-1-yl]propyl]-3-methanesulfonamido-1H-indazol-7-yl}-5-methyl-4-oxo-7-(1,4,4-trifluorocyclohexyl)-3H,4H-pyrido[2,3-d]pyrimidin-2-yl]-2-(3,5-difluorophenyl)ethyl]-2-[(2S,4R)-9-(difluoromethyl)-5,5-difluoro-7,8-diazatricyclo[4.3.0.0^2,^4]nona-1(6),8-dien-7-yl]acetamide] as the molecule, how does the CC50 at 4 days [1] read?
**A.** > 20000 pM

**Q.** And the EC50 [2]?
**A.** 9 pM

**Q.** With `Cc1cc(C2(F)CCC(F)(F)CC2)nc2nc([C@H](Cc3cc(F)cc(F)c3)NC(=O)Cn3nc(C(F)F)c4c3C(F)(F)[C@@H]3C[C@H]43)n(-c3ccc(Cl)c4c(NS(C)(=O)=O)nn([C@H](C)CN5C[C@H](F)C[C@H](F)C5)c34)c(=O)c12` (atropisomer, axis not shown; (P)) [Example 711, N-[(1S)-1-[(3P)-3-{4-chloro-1-[(2R)-1-[(3R,5S)-3,5-difluoropiperidin-1-yl]propan-2-yl]-3-methanesulfonamido-1H-indazol-7-yl}-5-methyl-4-oxo-7-(1,4,4-trifluorocyclohexyl)-3H,4H-pyrido[2,3-d]pyrimidin-2-yl]-2-(3,5-difluorophenyl)ethyl]-2-[(2S,4R)-9-(difluoromethyl)-5,5-difluoro-7,8-diazatricyclo[4.3.0.0^2,^4]nona-1(6),8-dien-7-yl]acetamide] as the molecule, how does the CC50 at 4 days [1] read?
**A.** > 20000 pM

**Q.** And the EC50 [2]?
**A.** 26 pM

Reference: patent US12594276B2, “Inhibitors of human immunodeficiency virus replication” (ViiV Healthcare UK (No.5) Limited, priority 2024, dated 2026)
